Key:
[1] = system: VEGF mRNA expression by a vitreous cell line; assay: VEGF mRNA expression by RT-PCR after cytokine stimulation of the vitreous cell line; format: cell-based, swine; conditions: cytokine 10 ng/ml, up to 48 hours; FIG. 7, FIG. 9
Method: Changes of VEGF expression due to cytokine stimulation in the vitreous cell line established in Example 1 were examined. The expression of VEGF at an mRNA level was examined by RT-PCR, and the expression at a protein level was examined by ELISA.
To be specific, when the vitreous cell line reached 50-60% confluent, the medium for the cells was exchanged with DMEM containing 1% bovine serum. […] Total RNA was extracted from the stimulated cells, cDNA was synthesized, and PCR was conducted using VEGF primers. The medium of the stimulated cells was used for ELISA. Since an appropriate antibody to swine VEGF is not available, VEGF protein concentration was measured by ELISA using an antibody to human VEGF, and the result was calculated as a reference value led from a human VEGF standard product. PCR was conducted using TOYOBO KOD plus kit and Gene PCR System 9700 (Applied Biosystem). The conditions of PCR were as follows:
95° C. 120 seconds; (95° C. 15 seconds, 62° C. 30 seconds, 68° C. 30 seconds)×30 cycles; 68° C. 90 seconds. ELISA was entrusted to Mitsubishi BCL.

[2] = system: HAS2 expression by a vitreous cell line; assay: HAS2 mRNA expression by RT-PCR after cytokine stimulation of the vitreous cell line; format: cell-based, swine; conditions: cell line transfected with Smad2, 3 or 4; FIG. 5
Method: Next, expression of hyaluronic acid synthase (HAS)2 and the effect of PDGF-BB and/or TGF-β1 on the hyaluronic acid production in the established vitreous cell line were examined. The expression was observed by RT-PCR.
To be specific, when the vitreous cell line was 50-60% confluent, the medium of the cells was exchanged with DMEM containing 1% bovine serum and, after culturing for 24 hr, the cells were stimulated with TGF-β1 (10 ng/ml) and PDGF-BB (10 ng/ml). In a part of the examination, Smad2, 3 or 4 was transfected into the cell line after 6 hr from the medium exchange. The cells and culture supernatant were recovered at 3, 6, 24 and 48 hr after the cytokine stimulation (FIG. 2). Total RNA was extracted from the cells, cDNA was synthesized, and RT-PCR was performed using primers specific to HAS2. Using Roche FastStart High Fidelity PCR System, PCR was performed on Gene Amp PCR System 9700 (Applied Biosystems). The PCR conditions were as follows:
95° C. 2 min.→(95° C. 30 seconds→X° C. 30 seconds→72° C. […])×Y cycle→72° C. 7 min
X=60, Y=25 . . . beta-Actin

Substance	VEGF mRNA expression level [1]	expression of HAS2 under forced expression of Smad2, 3 or 4 [2]
IL-6: cytokine named among other cytokines used for stimulation	a significant change in the VEGF mRNA expression level was not observed	
TGF-β1: cytokine used to stimulate the vitreous cell line (10 ng/ml)		resulted in the expression of HAS2
TGFβ	a significant change in the VEGF mRNA expression level was not observed	
TNFα	a significant change in the VEGF mRNA expression level was not observed	
IL-1β: cytokine used to stimulate the vitreous cell line (10 ng/ml)	a significant change in the VEGF mRNA expression level was not observed	
PDGF-AA: cytokine used to stimulate the vitreous cell line (10 ng/ml)	a significant change in the VEGF mRNA expression level was not observed	
